# Laboratory results taken from patent publication US20130178475A1, “sGC STIMULATORS” (IRONWOOD PHARMACEUTICALS, INC., priority 2010, published 2013).
# Target: T1, soluble guanylate cyclase (sGC) (Homo sapiens, UniProt Q02108+Q02153)
# T1 construct: endogenously expressing soluble guanylate cyclase (sGC); endogenous in cells; host or cells: HEK293
# T1 sequence (Q02153 1-619): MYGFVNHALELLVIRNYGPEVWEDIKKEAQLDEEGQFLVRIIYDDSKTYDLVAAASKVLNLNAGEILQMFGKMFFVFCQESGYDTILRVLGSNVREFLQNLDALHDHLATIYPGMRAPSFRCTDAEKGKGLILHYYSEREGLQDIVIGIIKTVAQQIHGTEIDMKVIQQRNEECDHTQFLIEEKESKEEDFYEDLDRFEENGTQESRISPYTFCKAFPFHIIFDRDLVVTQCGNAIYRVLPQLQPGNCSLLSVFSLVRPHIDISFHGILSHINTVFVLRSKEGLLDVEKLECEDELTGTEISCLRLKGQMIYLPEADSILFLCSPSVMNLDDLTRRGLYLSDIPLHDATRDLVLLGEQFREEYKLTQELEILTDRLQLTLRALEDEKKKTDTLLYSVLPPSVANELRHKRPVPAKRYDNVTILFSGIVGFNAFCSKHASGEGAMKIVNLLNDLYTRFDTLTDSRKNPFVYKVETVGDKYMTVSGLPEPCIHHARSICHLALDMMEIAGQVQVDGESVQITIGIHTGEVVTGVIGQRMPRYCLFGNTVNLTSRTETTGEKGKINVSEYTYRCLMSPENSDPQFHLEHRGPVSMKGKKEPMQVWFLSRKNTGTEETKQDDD
# T1 sequence (Q02108 1-690): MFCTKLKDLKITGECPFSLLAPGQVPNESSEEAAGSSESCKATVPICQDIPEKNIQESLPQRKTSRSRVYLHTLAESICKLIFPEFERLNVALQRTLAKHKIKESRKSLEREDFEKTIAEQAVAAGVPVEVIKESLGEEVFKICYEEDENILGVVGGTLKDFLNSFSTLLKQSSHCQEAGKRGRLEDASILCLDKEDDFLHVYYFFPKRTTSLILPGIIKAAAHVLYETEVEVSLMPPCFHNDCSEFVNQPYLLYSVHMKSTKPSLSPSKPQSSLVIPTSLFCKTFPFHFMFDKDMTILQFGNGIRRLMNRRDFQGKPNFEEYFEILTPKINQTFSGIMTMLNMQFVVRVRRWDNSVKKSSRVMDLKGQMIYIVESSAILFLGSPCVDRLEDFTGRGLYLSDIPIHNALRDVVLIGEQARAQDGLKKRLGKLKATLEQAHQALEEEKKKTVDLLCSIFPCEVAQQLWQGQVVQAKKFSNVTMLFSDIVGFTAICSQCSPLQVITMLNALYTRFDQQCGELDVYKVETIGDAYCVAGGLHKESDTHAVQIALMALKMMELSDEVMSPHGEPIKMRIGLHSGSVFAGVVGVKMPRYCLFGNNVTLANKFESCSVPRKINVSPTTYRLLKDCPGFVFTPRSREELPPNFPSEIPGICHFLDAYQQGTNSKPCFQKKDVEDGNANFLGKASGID
# Test: sGC-HEK-cGMP assay
# Assay type: cell-based
# Conditions: HEK293 cells, 10 min incubation, intracellular cGMP by LC/MS; for Increase in cGMP Concentration Tested at 10 μM in HEK Assay: test compound 10 μM; for Increase in cGMP Concentration Tested at 30 μM in HEK Assay: test compound 30 μM
# Protocol: Human embryonic kidney cells (HEK293), endogenously expressing soluble guanylate cyclase (sGC), were used to evaluate the activity of test compounds. Compounds stimulating the sGC receptor should cause an increase in the intracellular concentration of cGMP. […] Cells were then incubated for 15 minutes at 37° C. with 0.5 mM 3-isobutyl-1-methylxanthine (2004). Test article was then added to the assay mixture (2 μL) and incubated at 37° C. for 10 minutes. After the 10 minute incubation, the assay mixture was aspirated and 0.1M HCl (2004) was added to the cells. The plate was incubated at 4° C. for 30 minutes in the 0.1M HCl to stop the reaction and lyse the cells. The plates were then centrifuged at 1,200 g for 5 minutes at room temperature. Supernatants were collected and transferred to a new flat bottom 96 well plate for analysis. Vehicle controls were carried out using DMSO (1%). A known sGC stimulator, BAY 41-2272, was used as the positive control.
# Samples were diluted with an equal volume of 1 M Ammonium Acetate (pH 7) to neutralize samples for better chromatography. A 2×cGMP standard curve was prepared in 0.1 M HCl and then diluted with an equal volume of 1 M Ammonium Acetate, with the following final concentrations in nM: 1024, 512, 256, 128, 64, 32, 16, 8, 4, 2, 1.
# cGMP concentrations were determined from each sample using the LC/MS conditions (Table 2 below) and calculated standard curve. EC50 values were calculated from concentration-response curves generated with GraphPad Prism Software.
Compound,Increase in cGMP Concentration Tested at 10 μM in HEK Assay,Increase in cGMP Concentration Tested at 30 μM in HEK Assay
Nc1nc(-c2nn(Cc3ccccc3F)c3c2CCCC3)ncc1-c1ccncc1 [Compound I-27],A (A represents no increase or an increase ranging from more than 0 fold to less than 5 fold),A (A represents no increase or an increase ranging from more than 0 fold to less than 5 fold)
CC1(C)C=Cc2c1c(-c1nccc(N)n1)nn2Cc1ccccc1F [Compound I-28],B (B represents an increase ranging from 5 fold to less than 10 fold),C (C represents an increase ranging from 10 fold to less than 20 fold)
CC1(C)C=Cc2c(c(-c3ncccn3)nn2Cc2ccccc2F)C1 [Compound I-29],A (A represents no increase or an increase ranging from more than 0 fold to less than 5 fold),B (B represents an increase ranging from 5 fold to less than 10 fold)
Fc1ccccc1Cn1nc(-c2ncccn2)c2c1CCC(F)(F)C2 [Compound I-30],A (A represents no increase or an increase ranging from more than 0 fold to less than 5 fold),A (A represents no increase or an increase ranging from more than 0 fold to less than 5 fold)
Nc1ccnc(-c2nn(Cc3ccccc3F)c3c2C2CCC3C2)n1 (stereo not shown) [Compound I-31],A (A represents no increase or an increase ranging from more than 0 fold to less than 5 fold),A (A represents no increase or an increase ranging from more than 0 fold to less than 5 fold)
CC1(C)Cc2c(c(-c3ncccn3)nn2Cc2ccccc2F)C(O)C1 (stereo not shown) [Compound I-32],A (A represents no increase or an increase ranging from more than 0 fold to less than 5 fold),A (A represents no increase or an increase ranging from more than 0 fold to less than 5 fold)
CC1(C)C=Cc2c(-c3ncccn3)nn(Cc3ccccc3F)c2C1 [Compound I-33],A (A represents no increase or an increase ranging from more than 0 fold to less than 5 fold),A (A represents no increase or an increase ranging from more than 0 fold to less than 5 fold)
Nc1nc(-c2nn(Cc3ccccc3F)c3c2CCC3)nc(N)c1/N=N/c1ccccc1 [Compound I-34],A (A represents no increase or an increase ranging from more than 0 fold to less than 5 fold),A (A represents no increase or an increase ranging from more than 0 fold to less than 5 fold)
Nc1nc(-c2nn(Cc3ccccc3F)c3c2CCC3)nc(N)c1N [Compound I-35],A (A represents no increase or an increase ranging from more than 0 fold to less than 5 fold),A (A represents no increase or an increase ranging from more than 0 fold to less than 5 fold)
COC(=O)Nc1c(N)nc(-c2nn(Cc3ccccc3F)c3c2CCC3)nc1N [Compound I-36],C (C represents an increase ranging from 10 fold to less than 20 fold),B (B represents an increase ranging from 5 fold to less than 10 fold)
"Fc1ccccc1Cn1nc(-c2cncnc2)c2c1CCCC2 [Compound I-47, 1-(2-fluorobenzyl)-3-(pyrimidin-5-yl)-4,5,6,7-tetrahydro-1H-indazole]",A (A represents no increase or an increase ranging from more than 0 fold to less than 5 fold),A (A represents no increase or an increase ranging from more than 0 fold to less than 5 fold)
